According to ChEMBL document CHEMBL1201862, “PubChem BioAssay data set” (2004):
Calls of active or inactive are those of the source.

Key:
Cytochrome P450 1A2 = target: T1, Cytochrome P450 1A2 (Homo sapiens, UniProt P05177);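 note: PubChem cytochrome P450 panel assay, CYP1A2 panel member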
T1 sequence (P05177 whole entry): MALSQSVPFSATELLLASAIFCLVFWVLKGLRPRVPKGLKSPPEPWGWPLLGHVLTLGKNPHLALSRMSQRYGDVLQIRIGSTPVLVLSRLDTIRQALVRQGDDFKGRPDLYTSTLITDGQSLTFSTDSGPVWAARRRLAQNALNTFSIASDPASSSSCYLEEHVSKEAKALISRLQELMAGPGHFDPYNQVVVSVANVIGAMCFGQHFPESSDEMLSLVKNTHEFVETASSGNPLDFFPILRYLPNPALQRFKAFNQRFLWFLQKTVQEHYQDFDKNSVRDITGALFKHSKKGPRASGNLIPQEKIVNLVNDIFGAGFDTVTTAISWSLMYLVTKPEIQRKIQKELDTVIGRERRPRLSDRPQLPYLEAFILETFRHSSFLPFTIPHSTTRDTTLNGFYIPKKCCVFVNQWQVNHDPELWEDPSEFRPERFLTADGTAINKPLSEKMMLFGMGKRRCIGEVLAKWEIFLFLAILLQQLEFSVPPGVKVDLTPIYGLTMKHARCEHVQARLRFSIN

Cytochrome P450 2D6 = Cytochrome P450 2D6 (Homo sapiens, UniProt P10635);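 note: CYP2D6 member of a cytochrome P450 panel assay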
Cytochrome P450 2C19 = Cytochrome P450 2C19 (Homo sapiens, UniProt P33261); assay: Cytochrome panel assay with activity outcomes. Panel member name: p450-cyp2c19 Compounds with AC50 equal or less than 10 uM are considered active; format: functional
[1] = HEp-2 cell cytotoxicity, dose response, cytotoxicity control for RSV inhibitor project, HTS (AID 2410); format: functional; details: human respiratory syncytial virus
Cytochrome P450 2C9 = Cytochrome P450 2C9 (Homo sapiens, UniProt P11712)
[2] = target: T2, Heat shock factor protein 1 (Mus musculus, UniProt P38532); assay: inhibition of MG132-induced HSE-luciferase signal, confirmation, cell-based, NIH3T3, luminescence, dose retest (AID 2382); format: functional;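 note: NIH3T3 fibroblasts with HSF1-driven luciferase reporter stressed by proteasome inhibitor MG132; luminescence from HSF1-driven luciferase expression after 8 hours of MG132 stress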
T2 sequence (P38532 whole entry): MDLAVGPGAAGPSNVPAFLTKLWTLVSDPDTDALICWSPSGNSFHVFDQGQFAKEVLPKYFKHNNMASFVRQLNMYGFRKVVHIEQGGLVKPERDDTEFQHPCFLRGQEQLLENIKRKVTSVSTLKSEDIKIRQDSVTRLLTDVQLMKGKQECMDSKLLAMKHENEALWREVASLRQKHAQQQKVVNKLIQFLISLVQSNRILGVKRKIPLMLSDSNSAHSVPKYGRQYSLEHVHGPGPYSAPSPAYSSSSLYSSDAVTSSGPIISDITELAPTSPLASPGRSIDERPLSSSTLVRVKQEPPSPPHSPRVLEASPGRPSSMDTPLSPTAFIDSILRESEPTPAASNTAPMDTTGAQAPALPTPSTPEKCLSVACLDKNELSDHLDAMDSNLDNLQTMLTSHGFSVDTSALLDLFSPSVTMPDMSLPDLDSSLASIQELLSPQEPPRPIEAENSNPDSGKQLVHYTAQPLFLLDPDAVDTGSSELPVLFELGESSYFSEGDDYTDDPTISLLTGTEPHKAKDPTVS

[3] = tested on: Streptococcus sp. 'group A'; assay: growth inhibition of control SK(-) GAS strain, dose response, counter-screen for streptokinase expression inhibitor project, luminescence, kanamycin, BacTiterGlo, confirmation (AID 1900); format: functional, organism-based
Streptokinase A = target: T3, Streptokinase A (Streptococcus pyogenes serotype M1, UniProt P10520); assay: S. pyogenes streptokinase expression inhibitors, potency, dose response, plasminogen activation absorbance, OD405 (AID 1914); format: functional, Streptococcus pyogenes M1 GAS;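 note: secreted streptokinase activity via plasminogen activation per viability signal from cell pellet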
T3 sequence (P10520 whole entry): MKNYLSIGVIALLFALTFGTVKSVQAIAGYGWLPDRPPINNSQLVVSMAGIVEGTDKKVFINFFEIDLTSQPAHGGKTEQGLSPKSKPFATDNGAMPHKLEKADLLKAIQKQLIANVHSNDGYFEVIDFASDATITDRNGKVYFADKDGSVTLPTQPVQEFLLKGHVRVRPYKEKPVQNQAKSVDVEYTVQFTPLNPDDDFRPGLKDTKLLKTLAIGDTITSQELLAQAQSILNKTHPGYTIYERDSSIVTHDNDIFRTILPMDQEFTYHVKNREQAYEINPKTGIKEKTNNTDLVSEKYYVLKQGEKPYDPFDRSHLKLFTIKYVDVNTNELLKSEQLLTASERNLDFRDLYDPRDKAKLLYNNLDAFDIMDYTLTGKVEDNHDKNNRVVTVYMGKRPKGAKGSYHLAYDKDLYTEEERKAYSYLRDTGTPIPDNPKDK

Streptococcus = assay: Group A Streptococcus viability loss, dose response, counter-screen for streptokinase expression inhibitor project, luminescence, BacTiterGlo (AID 1915); format: functional, organism-based;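 note: potency for reduction of bacterial viability or growth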
H4 = assay: Luminescence Cell-Based Dose Response HTS to Identify Activators of 5'UTR Stem-Loop Driven Prion Protein mRNA Translation in H4 Neuroglioblastoma Cells. [Related pubchem assays: 1829 (Project Summary), 1814 (Primary HTS)]; format: functional; details: Homo sapiens

Sequence of Cytochrome P450 2D6 (P10635 whole entry): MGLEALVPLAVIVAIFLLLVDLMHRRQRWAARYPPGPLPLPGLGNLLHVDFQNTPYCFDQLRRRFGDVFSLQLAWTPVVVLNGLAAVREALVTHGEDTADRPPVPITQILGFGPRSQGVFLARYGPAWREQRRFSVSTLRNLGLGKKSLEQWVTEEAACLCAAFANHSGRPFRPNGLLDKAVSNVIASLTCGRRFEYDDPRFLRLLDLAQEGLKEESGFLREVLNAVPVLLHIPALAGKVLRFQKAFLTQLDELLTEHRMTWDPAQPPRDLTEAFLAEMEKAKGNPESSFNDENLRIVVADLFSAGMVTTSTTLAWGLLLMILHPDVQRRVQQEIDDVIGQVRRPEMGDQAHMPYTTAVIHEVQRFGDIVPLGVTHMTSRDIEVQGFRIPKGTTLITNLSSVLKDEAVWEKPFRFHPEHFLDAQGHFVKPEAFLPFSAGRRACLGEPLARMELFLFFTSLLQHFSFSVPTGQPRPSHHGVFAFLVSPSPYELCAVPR
Sequence of Cytochrome P450 2C9 (P11712 whole entry): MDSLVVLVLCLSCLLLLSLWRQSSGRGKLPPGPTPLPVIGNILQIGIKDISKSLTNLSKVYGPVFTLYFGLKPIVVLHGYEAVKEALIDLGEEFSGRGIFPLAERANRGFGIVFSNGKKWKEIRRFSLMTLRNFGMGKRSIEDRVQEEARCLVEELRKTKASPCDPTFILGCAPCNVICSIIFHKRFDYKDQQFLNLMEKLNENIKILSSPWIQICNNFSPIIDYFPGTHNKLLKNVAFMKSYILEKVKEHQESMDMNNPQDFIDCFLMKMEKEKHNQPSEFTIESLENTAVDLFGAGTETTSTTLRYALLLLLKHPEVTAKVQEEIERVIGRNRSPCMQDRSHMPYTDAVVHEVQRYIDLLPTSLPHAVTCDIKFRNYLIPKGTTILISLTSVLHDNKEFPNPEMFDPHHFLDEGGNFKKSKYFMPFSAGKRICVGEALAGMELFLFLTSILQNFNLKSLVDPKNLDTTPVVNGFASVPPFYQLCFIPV
Sequence of Cytochrome P450 2C19 (P33261 whole entry): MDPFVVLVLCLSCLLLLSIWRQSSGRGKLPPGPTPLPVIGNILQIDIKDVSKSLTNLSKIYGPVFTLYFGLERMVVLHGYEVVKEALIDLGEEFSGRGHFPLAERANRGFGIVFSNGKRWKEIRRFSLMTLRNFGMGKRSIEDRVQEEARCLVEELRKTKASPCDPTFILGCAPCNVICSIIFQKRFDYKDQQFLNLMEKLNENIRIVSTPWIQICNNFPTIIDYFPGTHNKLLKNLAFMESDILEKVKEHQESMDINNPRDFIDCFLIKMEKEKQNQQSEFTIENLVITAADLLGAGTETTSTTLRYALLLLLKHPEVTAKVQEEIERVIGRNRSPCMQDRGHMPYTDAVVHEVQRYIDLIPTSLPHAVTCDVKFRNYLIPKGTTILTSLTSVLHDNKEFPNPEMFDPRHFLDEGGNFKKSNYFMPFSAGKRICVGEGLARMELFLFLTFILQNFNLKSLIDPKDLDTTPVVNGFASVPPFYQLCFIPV

Structure (SMILES): COc1cccc(NC(=O)COC(=O)c2nc3nccc(C)n3n2)c1
- AC50 (Cytochrome P450 1A2): 17.8 µM (inconclusive)
- AC50 (Cytochrome P450 2D6): 22.4 µM (inconclusive)
- AC50 (Cytochrome P450 2C19; read-out: AC50): 31.6 µM (inconclusive)

Structure (SMILES): COc1ccc(CN2C(=O)CN(C3CCCCCC3)C(=O)C2c2ccc(OC)c(OC)c2)cc1 (configuration not stated)
- AC50 (Cytochrome P450 1A2): 35.5 µM (inconclusive)

Structure (SMILES): COc1ccc(C2Nc3ccccc3C(=O)N2Cc2ccco2)cc1COc1ccc([N+](=O)[O-])cc1 (configuration not stated)
- AC50 (Cytochrome P450 2D6): 3.98 µM (inconclusive)

Structure (SMILES): Cc1cc(-c2ccc(Cl)cc2)oc(=O)c1NC(=O)c1ccccc1
- AC50 (Cytochrome P450 2C19; read-out: AC50): 3.55 µM (inconclusive)

Structure (SMILES): O=C1c2ccccc2C(=O)N1CCCCN(C(=O)c1cc([N+](=O)[O-])cc([N+](=O)[O-])c1)c1ccc(Cl)cc1
- CC50 [1]: > 50 µM (active)

Structure (SMILES): CS(=O)(=O)Nc1cccc(-c2nc(NCCN3CCOCC3)c3ccccc3n2)c1
- AC50 (Cytochrome P450 1A2): 25.1 µM (inconclusive)

Structure (SMILES): O=C(c1cccc(F)c1)N1CCC[C@@]2(CCN(c3cccc(-c4ccccc4)c3)C2)C1
- AC50 (Cytochrome P450 2C9): 20 µM (inconclusive)

Structure (SMILES): CN=C(S)N1CCN(c2ccc(Cl)c(Cl)c2)CC1
- CC50 [1]: 21.3 µM (active)

Structure (SMILES): CC(CO)(CO)/N=C\c1cc(I)cc(I)c1O
- AC50 (Cytochrome P450 1A2): 1.58 µM (inconclusive)
- AC50 (Cytochrome P450 2C9): 6.31 µM (inconclusive)

Structure (SMILES): N#C/C(=C\c1ccc(N2CCCC2)c([N+](=O)[O-])c1)c1nc2ccccc2[nH]1
- AC50 (Cytochrome P450 1A2): 11.2 µM (inconclusive)

Structure (SMILES): CN1CCN(c2ncnc3ccc(-c4ccccc4Cl)cc23)CC1
- AC50 (Cytochrome P450 2D6): 25.1 µM (inconclusive)

Structure (SMILES): Cc1nc2cc(C(F)(F)F)ccc2n1CCNc1nc(-c2cc(Cl)c(N)c(Cl)c2)cs1
- CC50 [1]: 19.7 µM (active)

Structure (SMILES): CCCNC(=O)N1N=C(c2ccc(N)cc2)c2cc3c(cc2[C@H]1C)OCO3
- AC50 (Cytochrome P450 2D6): 25.1 µM (inconclusive)

Structure (SMILES): C=CCc1ccc(OCCOCCOc2cccc3ccc(C)nc23)c(OC)c1
- CC50 [1]: 29.6 µM (active)

Structure (SMILES): CC(C)C(NS(=O)(=O)c1cccc2nsnc12)C(=O)N1CCc2ccccc2C1 (configuration not stated)
- AC50 (Cytochrome P450 2C9): 3.55 µM (inconclusive)
- AC50 (Cytochrome P450 2C19; read-out: AC50): 6.31 µM (inconclusive)

Structure (SMILES): COCCCN1C(=O)C(O)=C(C(=O)c2ccc(OC(C)C)c(C)c2)C1c1ccncc1 (configuration not stated)
- AC50 (Cytochrome P450 2C9): 35.5 µM (inconclusive)
- AC50 (Cytochrome P450 2C19; read-out: AC50): 11.2 µM (inconclusive)

Structure (SMILES): CN(CC(=O)Nc1ccc(Cl)cc1)CC(=O)Nc1cccc(Br)c1
- CC50 [1]: 16.2 µM (active)

Structure (SMILES): CC(C)OC(=O)c1cc2c(OC[C@@H](O)CNC(C)(C)C)cccc2[nH]1
- AC50 (Cytochrome P450 1A2): 31.6 µM (inconclusive)
- AC50 (Cytochrome P450 2D6): 15.8 µM (inconclusive)

Structure (SMILES): N=C(N)c1ccc(/N=N\c2c(O)ccc3c2[nH]c2ccccc23)cc1
- AC50 (Cytochrome P450 2D6): 5.01 µM (inconclusive)

Structure (SMILES): O=C(c1ccc(N2CCCCC2)c([N+](=O)[O-])c1)N(Cc1ccccc1)c1ccccn1
- AC50 (Cytochrome P450 2C9): 7.94 µM (inconclusive)

Structure (SMILES): COc1cccc(Cn2c(=O)c(-c3cc(F)cc(F)c3)nc3cnc(N4CCNCC4)nc32)c1
- AC50 (Cytochrome P450 2D6): 39.8 µM (inconclusive)
- AC50 (Cytochrome P450 2C19; read-out: AC50): 39.8 µM (inconclusive)

Structure (SMILES): Oc1ccccc1-c1nnc(-c2ccc(C(F)(F)F)cc2)o1
- EC50 [2]: > 195 µM (not active)
- AC50 (Cytochrome P450 2C19; read-out: AC50): 39.8 µM (inconclusive)

Structure (SMILES): CC(C)(C)c1ccc(CN(Cc2ccco2)Cc2nnnn2C2CCCC2)cc1
- EC50 [3]: 5.71 µM (active)
- EC50 (Streptokinase A): 12.7 µM (active)
- EC50 (Streptococcus): > 150 µM (not active)
- AC50 (Cytochrome P450 2D6): 22.4 µM (inconclusive)

Structure (SMILES): CCc1nc(N[C@H](C(=O)O)C(C)CC)c2oc3ccccc3c2n1 (some centres not stated)
- AC50 (Cytochrome P450 2C9): 0.00891 µM (inconclusive)
- AC50 (Cytochrome P450 2C19): inconclusive

Structure (SMILES): C[C@H](CO)NC(=O)[C@H](C)[C@@H]1C[C@@]1(C)[C@@H](NC(=O)OCc1ccccc1)c1ccccc1
- AC50 (Cytochrome P450 2C9): 39.8 µM (inconclusive)

Structure (SMILES): C[C@@H](C(=O)Cc1ccc2ccccc2c1)[C@@H]1C[C@@]1(C)[C@@H](NP(=O)(c1ccccc1)c1ccccc1)c1ccccc1
- AC50 (Cytochrome P450 1A2): 10 µM (inconclusive)

Structure (SMILES): COCCn1c(=O)c(-c2cccs2)nc2cnc(N3CCNCC3)nc21
- AC50 (Cytochrome P450 2C19; read-out: AC50): 25.1 µM (inconclusive)

Structure (SMILES): O=[N+]([O-])c1ccc(S(=O)(=O)Nc2cccc(-c3ccc(N4CCOCC4)nn3)c2)cc1
- CC50 [1]: > 50 µM (active)

Structure (SMILES): Nc1ccc(-c2ccc(Nc3cc(S(=O)(=O)O)c(N)c4c3C(=O)c3ccccc3C4=O)cc2)c(S(=O)(=O)O)c1
- AC50 (Cytochrome P450 2C9): 6.31 µM (inconclusive)

Structure (SMILES): O=C(Nc1cccc(C(F)(F)F)c1)C1CCCN1S(=O)(=O)c1cccc2cccnc12 (configuration not stated)
- AC50 (Cytochrome P450 1A2): 3.16 µM (inconclusive)
- AC50 (Cytochrome P450 2D6): 31.6 µM (inconclusive)
- AC50 (Cytochrome P450 2C9): 5.62 µM (inconclusive)

Structure (SMILES): CCCCCn1c(=O)c(C(=O)c2ccccc2)nc2ccccc21
- AC50 (Cytochrome P450 2D6): 28.2 µM (inconclusive)

Structure (SMILES): Cc1cc(N2CCOCC2)nc2ccc(N=C(S)N3CCCCC3C)cc12 (configuration not stated)
- CC50 [1]: 18.2 µM (active)

Structure (SMILES): CCn1c(C)[n+](CCCS(=O)(=O)[O-])c2cc(Cl)c(Cl)cc21
- AC50 (Cytochrome P450 2C19): inconclusive

Structure (SMILES): Cc1cc2c(cc1S(=O)(=O)N1CCN(c3ccc(Cl)cc3)CC1)OCCN2C
- CC50 [1]: 41 µM (active)

Structure (SMILES): O=c1c(-c2cc(F)cc(F)c2)nc2cnc(N3CCNCC3)nc2n1Cc1ccc(F)cc1
- AC50 (Cytochrome P450 2C9): 12.6 µM (inconclusive)

Structure (SMILES): COc1ccc(CNc2ncncc2-c2c(C)noc2C)c(OC)c1
- AC50 (Cytochrome P450 1A2): 25.1 µM (inconclusive)

Structure (SMILES): O=C(CP(=O)(c1ccccc1)c1ccccc1)Nn1cnnc1
- AC50 (Cytochrome P450 2C19): inconclusive

Structure (SMILES): CN(C)CCNC(=O)C(C(=O)c1ccc(F)cc1)n1ccccc1=O (configuration not stated)
- AC50 (Cytochrome P450 1A2): 0.631 µM (inconclusive)

Structure (SMILES): COCCNC(=S)N/N=C(\C)c1ccc(OC(F)F)cc1
- CC50 [1]: > 50 µM (active)

Structure (SMILES): Cc1ccc(/C=N/n2c(S)nnc2-c2cccs2)cc1
- AC50 (Cytochrome P450 2D6): 5.01 µM (inconclusive)
- AC50 (Cytochrome P450 2C19; read-out: AC50): 3.55 µM (inconclusive)

Structure (SMILES): CC(/C=N/NC(=O)c1cccc([N+](=O)[O-])c1)=C\c1ccccc1
- AC50 (Cytochrome P450 1A2): 1.78 µM (inconclusive)

Structure (SMILES): Cc1nc(N/N=C/c2ccc(O)cc2)c2cnn(-c3ccccc3)c2n1
- CC50 [1]: 42.8 µM (active)

Structure (SMILES): CC1(C)Cc2c(sc(NC(=O)Nc3ccccc3)c2C(N)=O)CO1
- EC50 (H4): > 120 µM (not active)

Structure (SMILES): O=C(c1ccc(F)cc1)C1CCN(CCn2c(=S)[nH]c3ccccc3c2=O)CC1 [ALTANSERIN]
- AC50 (Cytochrome P450 1A2): 15.8 µM (inconclusive)
- AC50 (Cytochrome P450 2D6): 10 µM (inconclusive)
- AC50 (Cytochrome P450 2C9): 25.1 µM (inconclusive)

Structure (SMILES): CN(C)CC/C=C1\c2ccccc2CSc2ccccc21 [DOTHIEPIN]
- AC50 (Cytochrome P450 2D6): 7.94 µM (inconclusive)
